Laboratory results: patent publication US20120189677A1, “FORMULATIONS” (priority 2011, published 2012)
Where two headings read alike, the source gives them in different places.

How the values were obtained:
[1] = Turbidity of surfactant added to standard maltodextrin/lipid emulsion at room temperature (Example 1); format: physicochemical; details: surfactant 7% w/w in emulsion of 2% C* Dry MD 01958 maltodextrin and 1% S-75 lipid
[2] = approximate average of manufacturer and literature values; cited from earlier work
[3] = HLB values of surfactants (manufacturer/literature or equation); format: physicochemical; details: from HLB=20[1-(S/A)], S 45.5, A 276
[4] = Clarity of surfactant/lipid compositions with or without maltodextrin (Example 2); format: physicochemical; details: surfactant at % given in row, S-75 lipid, low temperature process; for Clarity with maltodextrin (2%): 2% maltodextrin; for Clarity without maltodextrin: no maltodextrin
[5] = Particle size analysis (FIG. 3); format: physicochemical; details: Brij35P 7.0% w/w, S-75 1% w/w, maltodextrin 2% w/w; 25:2 dilution

Row | Substance | Turbidity (FNU) [1] | HLB [2] | other results
1 | Octoxynol-12 | 4.32 FNU | 14.5 | 
2 | Octoxynol-40 | >150 FNU | 17.9 | 
3 | Octoxynol-9 | 7.75 FNU |  | 
4 | Octoxynol-5 | >150 FNU | 10.4 | 
5 | Nonoxynol-40 | >150 FNU | 17.8 | 
6 | Polysorbate-20 [Polysorbate 20] |  |  | HLB [3]: 16.7; Clarity with maltodextrin (2%) [4]: 59.5 FNU; Clarity without maltodextrin [4]: 79.5 FNU
7 | Laureth-23 [Brij 35P] |  |  | polydispersity [5]: 0.625; principal/dominant particle size [5]: 8.68 nm; Clarity with maltodextrin (2%) [4]: 128.1 FNU; Clarity without maltodextrin [4]: 184 FNU
8 | Nonoxynol-9 | 8.87 FNU | 12.9 | 
9 | Octoxynol-16 | 7.55 FNU |  | 
10 | Octoxynol-30 | >150 FNU | 17.1 | 
11 | Nonoxynol-10 | 8.29 FNU | 13.6 | 
